In the assay the test system is nude mice, HT29 intrarenal xenograft, tumor weight T/C. Description: NCI In Vivo Anticancer Drug Screen. Data for tumor model HT29;CX-1 Human Adenocarcinoma (MER+) (intrarenal inoculation) in NU/NU Swiss (nude) mice. Conditions: endpoint: mean tumor weight change, higher = larger tumour. In short, it runs like this: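 Tumor-bearing mice received test compound or vehicle, and tumor size or survival was recorded. Values are the treated-group measurement divided by the vehicle-treated control measurement.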

The mark [1] stands for this setting: dose: 100.0 mg/kg/injection, schedule: Q04DX004 (sc), vehicle: saline with Tween-80.
The mark [2] stands for this setting: dose: 200.0 mg/kg/injection, schedule: Q04DX004 (sc), vehicle: saline with Tween-80.
Where [3] appears, read: dose: 150.0 mg/kg/injection, schedule: Q04DX004 (sc), vehicle: saline with Tween-80.
Setting [4] is: dose: 300.0 mg/kg/injection, schedule: Q04DX004 (sc), vehicle: saline with Tween-80.
Where [5] appears, read: dose: 600.0 mg/kg/injection, schedule: Q04DX004 (sc), vehicle: saline with Tween-80.
[6] abbreviates: dose: 400.0 mg/kg/injection, schedule: Q04DX004 (sc), vehicle: saline with Tween-80.
[7] abbreviates: dose: 800.0 mg/kg/injection, schedule: Q04DX004 (sc), vehicle: saline with Tween-80.
[8] abbreviates: dose: 600.0 mg/kg/injection, schedule: Q04DX004 (sc), vehicle: suspension in saline.
Where [9] appears, read: dose: 1200.0 mg/kg/injection, schedule: Q04DX004 (sc), vehicle: suspension in saline.
The mark [10] stands for this setting: dose: 50.0 mg/kg/injection, schedule: Q01DX010 (sc), vehicle: saline with Tween-80.
The mark [11] stands for this setting: dose: 1200.0 mg/kg/injection, schedule: Q04DX004 (sc), vehicle: saline with Tween-80.
Setting [12] is: dose: 50.0 mg/kg/injection, schedule: Q01DX010 (sc), vehicle: Klucel (hydroxypropylcellulose) (HPC).
[13] abbreviates: dose: 100.0 mg/kg/injection, schedule: Q01DX010 (sc), vehicle: Klucel (hydroxypropylcellulose) (HPC).
[14] abbreviates: dose: 100.0 mg/kg/injection, schedule: Q01DX010 (sc), vehicle: saline with Tween-80.

Several values for one entry are separate records, joined by “and”; a condition that tells them apart may be missing. Identical values can stand only once. Records with an inconclusive call do not appear.

`O=C1N[C@@H]([C@H]2CC[C@H](Cl)CN2)C(=O)N[C@H]1[C@H]1CC[C@H](Cl)CN1`: the T/C runs as follows: (dose: 0.16 mg/kg/injection, schedule: Q01DX010 (sc), vehicle: water) 65 % of control and 70 % of control and 74 % of control; (dose: 0.31 mg/kg/injection, schedule: Q01DX010 (sc), vehicle: water) 20 % of control.

Regarding `CN(C)C(=O)c1cccc(COc2ccc(N3C(N)=NC(N)=NC3(C)C)cc2Cl)c1`, the T/C (dose: 12.5 mg/kg/injection, schedule: Q01DX010 (sc), vehicle: water) is 82 % of control.

With `Cc1cc(=NO)cc(C)n1O`, the T/C reads like this: (dose: 150.0 mg/kg/injection, schedule: Q04DX004 (sc), vehicle: distilled water + alcohol) 73 % of control; (dose: 300.0 mg/kg/injection, schedule: Q04DX004 (sc), vehicle: distilled water + alcohol) 80 % of control; (dose: 600.0 mg/kg/injection, schedule: Q04DX004 (sc), vehicle: distilled water + alcohol) 87 % of control; (dose: 1200.0 mg/kg/injection, schedule: Q04DX004 (sc), vehicle: distilled water + alcohol) 65 % of control.

Regarding `CCN1/C(=C/C=C/C=C\C=C\c2sc3ccc4ccccc4c3[n+]2CC)Sc2ccc3ccccc3c21`, the T/C was 85 % of control (dose: 25.0 mg/kg/injection, schedule: Q04DX004 (sc), vehicle: saline with Tween-80); 54 % of control (dose: 50.0 mg/kg/injection, schedule: Q04DX004 (sc), vehicle: saline with Tween-80); 123 % of control under setting [1]; 107 % of control under setting [2].

As for `Cc1oc2c(C)c3oc(=O)cc(C)c3cc2c1CCl`, the T/C is, setting by setting: under setting [3], 107 % of control; under setting [4], 71 % of control; under setting [5], 114 % of control.

`O=C1[C@H]2CCC[C@H]2[C@H]2CCC[C@@H]12`: the T/C is 67 % of control under setting [1], 44 % of control under setting [2], 83 % of control under setting [6] and 82 % of control under setting [7].

For the compound `c1cc[c]([Sn]([NH]c2ncnc3[nH]cnc23)([NH]c2ncnc3[nH]cnc23)[c]2ccccc2)cc1`, the T/C is 89 % of control (dose: 150.0 mg/kg/injection, schedule: Q04DX004 (sc), vehicle: suspension in saline); 47 % of control (dose: 300.0 mg/kg/injection, schedule: Q04DX004 (sc), vehicle: suspension in saline); 28 % of control under setting [8]; 124 % of control under setting [9].

On to `CO[C@H]1C[C@@H]2CC[C@@H](C)[C@@](O)(O2)C(=O)C(=O)N2CCCC[C@H]2C(=O)O[C@H]([C@H](C)C[C@@H]2CC[C@@H](O)[C@H](OC)C2)CC(=O)[C@H](C)C=C(C)[C@@H](O)[C@@H](OC)C(=O)[C@H](C)C[C@H](C)/C=C/C=C/C=C1C`, for which the T/C under setting [10] was 28 % of control.

Regarding `COC1=C(OC)C(=O)C(SC/C=C(\C)CCCC(C)CCCC(C)CCCC(C)C)=CC1=O` (stereo unspecified), the T/C reads like this: under setting [1], 11 % of control; under setting [2], 36 % of control; under setting [4], 59 % of control; under setting [6], 18 % of control; under setting [5], 26 % of control; under setting [7], 12 % of control. The T/C was 39 % of control under setting [11] and 55 % of control (dose: 2400.0 mg/kg/injection, schedule: Q04DX004 (sc), vehicle: saline with Tween-80).

With `Nc1ncn(C2CC(O)C(CO)O2)c(=O)n1` (stereo unspecified), the T/C (dose: 0.2 mg/kg/injection, schedule: Q01DX010 (sc), vehicle: saline) was 84 % of control.

For `C=C1C(=O)O[C@@H]2[C@H](O)[C@@H](C)[C@@H]3C=CC(=O)[C@@]3(C)[C@H](OC(=O)C=C(C)C)[C@H]12`, the T/C is 93 % of control (dose: 9.38 mg/kg/injection, schedule: Q04DX004 (sc), vehicle: saline with Tween-80); 121 % of control (dose: 18.75 mg/kg/injection, schedule: Q04DX004 (sc), vehicle: saline with Tween-80); 87 % of control (dose: 37.5 mg/kg/injection, schedule: Q04DX004 (sc), vehicle: saline with Tween-80).

Take `COc1ccc(-c2csc(=[N+]3CCCCC3)s2)cc1`: the T/C (dose: 6.25 mg/kg/injection, schedule: Q04DX004 (sc), vehicle: water) was 227 % of control and the T/C (dose: 12.5 mg/kg/injection, schedule: Q04DX004 (sc), vehicle: water) was 118 % of control.

For `COc1cccc2c1C(=O)c1c(O)c3c(c(O)c1C2=O)C[C@@](O)(C(=O)CO)C[C@@H]3OC1CC(OC(C)=O)C(OC(C)=O)C(C)O1` (stereo partly specified), for the setting “dose: 25.0 mg/kg/injection, schedule: Q01DX010 (sc), vehicle: distilled water + Tween-80”, the T/C is 35 % of control.

Consider `C[N+](C)(C)c1cc2c(nn1)Nc1ccccc1S2`, for which the T/C is, setting by setting: under setting [12], 25 % of control; under setting [13], 85 % of control.

For the compound `Cc1c(CNc2ccc(C(=O)NC(CC(=O)O)C(=O)O)cc2)ccc2nc(N)nc(N)c12` (stereo unspecified), the T/C (dose: 12.5 mg/kg/injection, schedule: Q04DX004 (sc), vehicle: saline with Tween-80) was 41 % of control.

In the case of `CC(=O)Oc1c(C)[nH]ccc1=O`, the T/C is 112 % of control under setting [8] and 77 % of control under setting [9].

In the case of `Cc1nn(CCO)c(C)c1N=[N+]([O-])c1c(C)nn(CCO)c1C`, the T/C was 68 % of control (dose: 75.0 mg/kg/injection, schedule: Q04DX004 (sc), vehicle: Klucel (hydroxypropylcellulose) (HPC)); 70 % of control (dose: 150.0 mg/kg/injection, schedule: Q04DX004 (sc), vehicle: Klucel (hydroxypropylcellulose) (HPC)); 44 % of control (dose: 300.0 mg/kg/injection, schedule: Q04DX004 (sc), vehicle: Klucel (hydroxypropylcellulose) (HPC)); 53 % of control (dose: 600.0 mg/kg/injection, schedule: Q04DX004 (sc), vehicle: Klucel (hydroxypropylcellulose) (HPC)); 102 % of control (dose: 1200.0 mg/kg/injection, schedule: Q04DX004 (sc), vehicle: Klucel (hydroxypropylcellulose) (HPC)).

For `CCN(CC)CCCNc1nccc2c(C)c3[nH]c4ccncc4c3cc12`, the T/C is 117 % of control (dose: 2.5 mg/kg/injection, schedule: Q01DX010 (sc), vehicle: other); 108 % of control (dose: 5.0 mg/kg/injection, schedule: Q01DX010 (sc), vehicle: other); 56 % of control (dose: 10.0 mg/kg/injection, schedule: Q01DX010 (sc), vehicle: other).

In the case of `Cc1c2cc[n+](C)cc2c(C)c2c1[nH]c1ccc(O)cc12`, the T/C reads like this: (dose: 1.25 mg/kg/injection, schedule: Q04DX004 (sc), vehicle: water) 360 % of control; (dose: 2.5 mg/kg/injection, schedule: Q04DX004 (sc), vehicle: water) 120 % of control.

As to `Cc1cc(N(CCOS(C)(=O)=O)CCOS(C)(=O)=O)ccc1C=Nc1ccc(-c2nc(Cc3ccccc3)sc2C)cc1`, the T/C was 92 % of control under setting [12]; 80 % of control under setting [13]; 117 % of control (dose: 200.0 mg/kg/injection, schedule: Q01DX010 (sc), vehicle: Klucel (hydroxypropylcellulose) (HPC)).

`S=C=NCCc1ccccc1`: under setting [14], the T/C is 57 % of control (2×) and 61 % of control.

Take `CCOC(=O)c1[nH]c2cccc3c2c1CC(Br)C3=O` (stereo unspecified): the T/C reads like this: under setting [3], 81 % of control; under setting [4], 81 % of control; under setting [5], 71 % of control; under setting [11], 71 % of control.

Turning to `CN(C)CCOc1ccc2c(c1)C/C(=C/c1ncc([N+](=O)[O-])n1C)C2=O`, the T/C is, setting by setting: under setting [10], 83 % of control; under setting [14], 78 % of control; (dose: 200.0 mg/kg/injection, schedule: Q01DX010 (sc), vehicle: saline with Tween-80) 18 % of control; (dose: 400.0 mg/kg/injection, schedule: Q01DX010 (sc), vehicle: saline with Tween-80) 93 % of control.

`NCCc1cc(O)c(O)c(O)c1`: the T/C is, setting by setting: (dose: 200.0 mg/kg/injection, schedule: Q04DX004 (sc), vehicle: saline) 92 % of control; (dose: 400.0 mg/kg/injection, schedule: Q04DX004 (sc), vehicle: saline) 120 % of control; (dose: 800.0 mg/kg/injection, schedule: Q04DX004 (sc), vehicle: saline) 101 % of control; (dose: 1600.0 mg/kg/injection, schedule: Q04DX004 (sc), vehicle: saline) 61 % of control.

Consider `O=Cc1ccccc1`, for which the T/C reads like this: (dose: 200.0 mg/kg/injection, schedule: Q04DX004 (sc), vehicle: Klucel (hydroxypropylcellulose) (HPC)) 119 % of control; (dose: 400.0 mg/kg/injection, schedule: Q04DX004 (sc), vehicle: Klucel (hydroxypropylcellulose) (HPC)) 107 % of control.

Source of the values: PubChem BioAssay AID206 (DTP/NCI, 2004).
